In the assay the target is T1, HCV NS3 protease (Hepatitis C virus genotype 1a, UniProt P27958).
T1 construct: HT (hydrophilic solubilizing tail) (C); made in house; host or cells: E. coli M15 [pREP4]
The experiment in a line: HPLC assay of inhibition of HCV NS3 protease cleavage of the 5A/5B substrate. It counts as biochemical. The note with it: Example 2; separate method not given; read-out: IC50, monovalent inhibitors of the HCV NS3 protease. The protocol:
Into an aqueous solution containing 25 mM TRIS, 50 mM NaCl, 0.5 mM EDTA, 10% glycerol and 0.1% NP40 was placed the potential inhibitor, the HCV NS3 protease at a concentration of 0.05 μM-[…], the HCV NS4A cofactor at a concentration of 0.05 μM-0.1 μM and the 5A/5B substrate at a concentration of 50 μM. This solution was then incubated for approximately 2 hours at 30° C. after which the solution was applied to an HPLC to determine if the 5A/5B remained intact and thus the compound was determined to be an inhibitor. […] The potential inhibitors were assayed at several different concentrations to determine the concentration which produced 50% inhibition of the HCV NS3 protease.

Square brackets hold non-standard residues; d marks the D form. Peptide text beside a SMILES is read from it. * marks the point of attachment. Biotin = O=C1N[C@H]2[C@H](CS[C@H]2CCCCC(=O)*)N1

T1 sequence (P27958 1028-1209): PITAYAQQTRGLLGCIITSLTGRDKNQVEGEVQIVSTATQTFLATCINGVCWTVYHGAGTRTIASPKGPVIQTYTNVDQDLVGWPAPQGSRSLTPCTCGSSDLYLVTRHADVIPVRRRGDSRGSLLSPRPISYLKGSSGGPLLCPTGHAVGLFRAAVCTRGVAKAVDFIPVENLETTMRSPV

Take `CC[C@@H](C)[C@@H](NC(=O)[C@H](NC(=O)[C@@H](CC(C)C)NC(=O)[C@@H](CO)NC(C)=O)C(C)C)C(=O)N[C@H](CCCNC(=N)N)C(=O)NCC(=O)N[C@@H](C(=O)N[C@@H](C(=O)N[C@@H](C(N)=O)C(C)C)[C@H](C)CC)C(C)C` [SEQ ID NO.: 12, Ser-Leu-Val-Ile-Arg-Gly-Val-Ile-Val]: the IC50 worked out at 0.6 µM.

With `CC[C@@H](C)[C@@H](NC(=O)[C@H](NC(=O)[C@@H](CC(C)C)NC(=O)[C@@H](CO)NC(=O)CNC(=O)[C@@H](CCCCN)NC(C)=O)C(C)C)C(=O)N[C@H](CCCNC(=N)N)C(=O)NCC(=O)N[C@@H](C(=O)N[C@@H](C(=O)N[C@@H](C(=O)N[C@@H](C(=O)N[C@H](CS)C(N)=O)C(C)C)C(C)C)[C@H](C)CC)C(C)C` [SEQ ID NO.: 13, Lys-Gly-Ser-Leu-Val-Ile-Arg-Gly-Val-Ile-Val-Val-Cys], the IC50 came to 2 µM.

With `CC[C@@H](C)[C@@H](NC(=O)[C@H](NC(=O)[C@@H](CC(C)C)NC(=O)[C@@H](CO)NC(=O)CNC(=O)[C@@H](CCCCN)NC(=O)CCCC[C@@H]1SC[C@@H]2NC(=O)N[C@@H]21)C(C)C)C(=O)N[C@H](CCCNC(=N)N)C(=O)NCC(=O)N[C@@H](C(=O)N[C@@H](C(=O)N[C@@H](C(=O)N[C@@H](C(=O)N[C@H](CS)C(=O)N[C@@H](CCCCN)C(=O)N[C@@H](CCCCN)C(=O)O)C(C)C)C(C)C)[C@H](C)CC)C(C)C` [SEQ ID NO.: 14, Xaa-Lys-Gly-Ser-Leu-Val-Ile-Arg-Gly-Val-Ile Val-Val-Cys-Lys-Lys] (Biotin-[dK]G[dS][dL][dV][dI][dR]G[dV][dI][dV][dV][dC]KK-OH), the half-maximal inhibitory concentration (IC50) amounted to 0.4 µM.

These data come from patent publication US5990276A, “Synthetic inhibitors of hepatitis C virus NS3 protease” (Schering Corporation, priority 1997, dated 1999).
